Measurements reported in patent US6294580A, “Substituted 4-hydroxy-phenylalcanoic acid derivatives with agonist activity to PPAR-gamma” (Glaxo Wellcome Inc., priority 1996, dated 2001).
Counter-ions that a name gives are not always drawn. Like-named read-outs stand apart in the source and are kept apart here.

Assays:
PPARg = test: PPARgamma Transient Cotransfection Assay; assay type: cell-based
hPPARgamma = target: T1, hPPARgamma (Homo sapiens, UniProt P37231); test: hPPARgamma Ligand Binding Assay
T1 construct: 10x-histidine tag (N); made in house; host or cells: E. coli
T1 sequence (P37231 195-475 isoform P37231-2): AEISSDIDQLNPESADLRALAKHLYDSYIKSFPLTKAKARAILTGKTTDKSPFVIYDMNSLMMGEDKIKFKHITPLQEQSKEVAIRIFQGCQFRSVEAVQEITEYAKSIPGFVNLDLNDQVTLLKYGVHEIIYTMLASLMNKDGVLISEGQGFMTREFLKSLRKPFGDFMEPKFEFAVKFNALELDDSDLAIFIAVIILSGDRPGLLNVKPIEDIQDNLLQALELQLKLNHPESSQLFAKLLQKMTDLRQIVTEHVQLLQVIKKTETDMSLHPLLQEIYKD
Experimental: 2. hPPARgamma Ligand Binding Assay: The PPAR-gamma ligand binding domain (amino acids 195-475) was expressed with an N-terminal 10×-histidinetag in E. coli cells. The cells were lysed and receptor was purified by means of the epitope tag. The stock solution of protein was diluted to 200 nM in assay buffer (50 mM Tris, 50 mM KCl, pH 8 20 mM CHAPS, 2 mM EDTA 10 mM DTT (Fresh)) just before use.
Test compounds were prepared as 6 mM stock solutions in DMSO. […] The right-most column of wells was used for controls. […] Plates were incubated at room temperature for 2 hrs, and then cooled on ice for 30 minutes. 50 uL samples from each well of a single test plate were simultaneously loaded onto an equilibrated AGTC 96 well gel filtration block (Advanced Genetics Technology Corp.) using a Zymak Rapidplate automated pipettor. The block was placed on top of a clean microtiter plate and centrifuged @1,100×g for 4 min. 200 uL of scintillation fluid was added to each well, the plates were sealed and allowed to equilibrate for at least 4 hours before counting in a Wallac 1250 Microbeta counter.
Ki's were determined from a nonlinear least squares fit of the data to a simple competitive binding model.

[1] = CAT reporter, read-out: PPARg EC50
[2] = PPARg Ki, competition with [3H]-BRL 49,653, room temperature 2 hrs
[3] = read-out: PPARg EC50, CAT reporter

Molecule | EC50 (PPARg; [1]) [nM] | Ki (hPPARgamma; [2]) [nM] | other results
CCN(CCOc1ccc(C[C@H](Nc2ccccc2C(=O)OC)C(=O)O)cc1)c1cccc(C)c1 [Example 71] | 150 |  | 
CN(CCOc1ccc(CC(Nc2ccc(Cl)cc2C(=O)c2ccccc2)C(=O)O)cc1)c1nc2ccccc2o1 (stereo not shown) [Example 20, 3-{4-[2-(benzoxazol-2-yl-methyl-amino)-ethoxy]-phenyl}-2-(2-benzoyl-4-chloro-phenylamino)-propionic acid] | 120 | 180 | 
COC(=O)C(Cc1ccc(OCc2ccccc2)cc1)Nc1ccccc1C(=O)Nc1ccccc1 (racemic) [Example 6, 3-(4-Benzyloxy-phenyl)-2-(phenylcarbamoyl-phenylamino)-propionic acid methyl ester] |  |  | PPARg Fold. Act. (PPARg; CAT reporter): 4
O=C(c1ccccc1)c1ccccc1N[C@@H](Cc1ccc(OC[C@@H]2CSCN2c2nc3ccccc3o2)cc1)C(=O)O [Example 72, 3-[4-(3-Benzoxazol-2-yl-thiazolidin-4(R)-ylmethoxy)-phenyl]-2(S)-(2-benzoyl-phenylamino)-propionic acid] | 5 | 30 | 
O=C(c1ccccc1)c1ccccc1NC(Cc1ccc(OCCc2cccnc2)cc1)C(=O)O (stereo not shown) [Example 123, 2-(2-Benzoyl-phenylamino)-3-[4-(2-pyridin-3-yl-ethoxy]-phenyl]-propionic acid] | 620 | 280 | 
Cc1nnsc1-c1nc(CCOc2ccc(C[C@H](Nc3ccccc3C(=O)c3ccccc3)C(=O)O)cc2)c(C)s1 [Example 41, 2(S)-(2-benzoyl-phenylamino)-3-(4-{2-[5-methyl-2-(4-methyl[1,2,3]thiadiazol-5-yl)-thiazol-4-yl]ethoxy}-phenyl)-propionic acid] | 5 | 70 | 
Cc1ccccc1C(=O)c1ccccc1NC(Cc1ccc(OCCN(C)c2nc3ccccc3o2)cc1)C(=O)O (stereo not shown) [Example 112, 3-{4-[2-(Benzoxazol-2-yl-methylamino)-ethoxy]-phenyl}-2-(2-(2-methyl-benzoyl)-phenylamino)-propionic acid] | 10 | 130 | 
Cc1oc(-c2ccccc2)nc1CCOc1ccc(CC(Nc2ccccc2C(=O)c2ccc(CN(C)C)cc2)C(=O)O)cc1 (stereo not shown) [Example 81, 2-[2-(4-dimethylaminomethyl-benzoyl)-phenylamino]-3-{4-[2-(5-methyl-2-phenyl-oxazol-4-yl)-ethoxy]-phenyl}-propionic acid hydrochloride] | 400 | 130 | 
COC(=O)[C@H](Cc1ccc(OCc2ccccc2)cc1)NC(=O)c1coc2ccccc2c1=O [Example 10, 3-(4-Benzyloxy-phenyl)-2(S)-[(4-oxo-4H-chromene-3-carbonyl)-amino]-propionic acid methyl ester] | 170 | 300 | 
COC(=O)c1ccccc1N[C@@H](Cc1ccc(OCCSc2ccc(Cl)cc2)cc1)C(=O)O [Example 46, 2-(1-Carboxy-2-{4-[2-(4-clhorophenylsulfanyl)-ethoxy]-phenyl}-ethylamino)-benzoic acid methyl ester] | 900 | 750 | 
Cc1ccc(C(=O)c2ccccc2NC(Cc2ccc(OCCN(C)c3nc4ccccc4o3)cc2)C(=O)O)cc1 (stereo not shown) [Example 111, 3-{4-[2-(Benzoxazol-2-yl-methylamino)-ethoxy]-phenyl}-2-(2-(4-methyl-benzoyl)-phenylamino)-propionic acid] | 10 | 70 | 
CN(CCOc1ccc(CC(Nc2ccccc2C(=O)C2CCCC2)C(=O)O)cc1)c1nc2ccccc2o1 (stereo not shown) [Example 48, 3-{4-[2-(Benzoxazol-2-yl-methyl-amino)-ethoxy]-phenyl}-2-(2-cyclopentanecarbonyl-phenylamino)-propionic acid] | 20 | 115 | 
COC(=O)c1ccccc1N[C@@H](Cc1ccc(OCCc2nc(N3CCN(C)CC3)sc2C)cc1)C(=O)O [Example 105] | 35 |  | Ki (hPPARgamma; read-out: PPARg Ki; competition with [3H]-BRL 49,653, room temperature 2 hrs): 140 nM
3-{4-[2-(Benzoxazol-2-yl-methylamino)-ethoxy]-phenyl}-3-(4-benzoyl-thienylamino)-propionic acid [Example 108] | 20 |  | Ki (hPPARgamma; competition with [3H]-BRL 49,653, room temperature 2 hrs; read-out: PPARg Ki): 80 nM
Cc1oc(-c2ccccc2)nc1CCOc1ccc(C[C@H](Nc2ccccc2C(=O)NCCCN)C(=O)O)cc1 [Example 90, 2-(S)-(1-carboxy-2-{4-{2-(5-methyl-2-phenyl-oxazol-4-yl)-ethoxy]-phenyl}-ethylamino)-benzoic acid 3-aminopropyl amide hydrochloride] |  | 3000 | 
CN(CCOc1ccc(CC(Nc2ccccc2C(=O)c2ccccc2)C(=O)O)cc1)c1ccccn1 (stereo not shown) [Example 11, 2-(2-Benzoyl-phenylamino)-3-{4-[2-(methyl-pyridin-2-yl-amino)-ethoxy]-phenyl}-propionic acid] |  |  | EC50 (PPARg; [3]): 10 nM
COC(=O)[C@H](Cc1ccc(OCCc2nc(N3CCN(C)CC3)sc2C)cc1)Nc1ccccc1C(=O)c1ccccc1 [Example 42] | 5 |  | 
Cc1sc(N2CCN(S(C)(=O)=O)CC2)nc1CCOc1ccc(C[C@H](Nc2ccccc2C(=O)c2ccccc2)C(=O)O)cc1 [Example 103, 2(S)-(2-benzoyl-phenylamino)-3-(4-{2-[5-methyl-2-(4-methylsulfonyl-piperazin-1-yl)-thiazol-4-yl]-ethoxy}-phenyl)-propionic acid] |  |  | EC50 (PPARg; [3]): 180 nM
CN(CCOc1ccc(C[C@H](NC(=O)c2coc3ccccc3c2=O)C(=O)O)cc1)c1nc2ccccc2o1 [Example 28, 3-{4-[2-(Benzoxazol-2-yl-methyl-amino)-ethoxy]-phenyl}-2(S)-[(4-oxo-4H-chromene-3-carbonyl)-amino]-propionic acid] | 25 |  | 
COC(=O)C(Cc1ccc(OCc2ccccc2)cc1)Nc1ccccc1C(=O)N1CCCCC1 (stereo not shown) [Example 7, 3-(4-Benzyloxy-phenyl)-2-[2-(piperidine-1-carbonyl)-phenylamino]-propionic acid methyl ester] |  |  | PPARg Fold. Act. (PPARg; CAT reporter): 5
O=C(C1=C(N[C@@H](Cc2ccc(OCc3ccccc3)cc2)C(=O)O)CCCC1)c1ccccc1 [Example 3, 2(S)-(2-Benzoyl-cyclohex-1-enylamino)-3-(4-benzyloxy-phenyl)-propionic acid dicyclohexylamine salt] |  |  | PPARg Fold. Act. (PPARg; CAT reporter): 3
CNC(=O)c1ccccc1N[C@@H](Cc1ccc(OCCc2nc(-c3ccccc3)oc2C)cc1)C(=O)O [Example 91, 2-(S)-(1-carboxy-2-{4-{2-(5-methyl-2-phenyl-oxazol-4-yl)ethoxy]-phenyl}-ethylamino)-benzoic acid methyl amide] | 20 |  | 
Cc1oc(-c2ccccc2)nc1CCOc1ccc(CC(Nc2ccccc2C(=O)c2cccc(CO)c2)C(=O)O)cc1 (stereo not shown) [Example 85, 2-[2-(3-hydroxymethyl-benzoyl)-phenylamino]-3-{4-[2-(5-methyl-2-phenyl-oxazol-4-yl)-ethoxy]-phenyl}-propionic acid] | 20 |  | 
COC(=O)c1ccccc1N[C@@H](Cc1ccc(OCCc2nc(-c3ccccc3)oc2C)cc1)C(=O)O [Example 88, 2-(S)-(1-carboxy-2-{4-{2-(5-methyl-2-phenyl-oxazol-4-yl)-ethoxy]-phenyl}-ethylamino)-benzoic acid methyl ester] |  |  | EC50 (PPARg; [3]): 0.5 nM
Cc1oc(-c2ccccc2)nc1CCOc1ccc(CC(Nc2ccccc2C(=O)c2cccc(C(=O)O)c2)C(=O)O)cc1 (stereo not shown) [Example 84] | 55 |  | 
